From patent US7897582B2, “Oligonucleotide compositions and methods for the modulation of the expression of B7 protein” (Isis Pharmaceuticals, Inc., priority 2003, dated 2011) come the findings set out here.

Strand notation (5' to 3'): a small letter for the sugar, then the base; units joined by * are phosphorothioate-linked, units joined directly phosphodiester-linked; [ ] holds rarer units or linkages, { } end groups; capitals alone tell only the bases. e = 2'-O-(2-methoxyethyl) (MOE); [5mC] = 5-methylcytosine; d = 2'-deoxy (DNA)

One data set deals with human B7-2. The data set can be described thus: Cell surface expression of B7-2 in transfected COS-7 cells by flow cytometry. The format is cell-based. The settings on record: 200 nM; FIG. 3. As for the experimental part:
A T-175 flask was seeded at 75% confluency with COS-7 cells (ATCC accession No. CRL 1651). The plasmid pcB7-1 was introduced into cells by standard calcium phosphate transfection. Following a 4 hour transfection, the cells were trypsinized and seeded in 12-well dishes at 80% confluency. The cells were allowed to adhere to the plastic for 1 hour and were then washed with phosphate-buffered saline (PBS). OptiMEM™ (GIBCO-BRL, Gaithersburg, Md.) medium was added along with 15 μg/mL of Lipofectin™ (GIBCO-BRL, Gaithersburg, Md.) and oligonucleotide at the indicated concentrations. After four additional hours, the cells were washed with phosphate buffered saline (PBS) and incubated with fresh oligonucleotide at the same concentration in DMEM (Dulbecco et al., Virol., 1959, 8, 396; Smith et al., Virol., 1960, 12, 185) with 10% fetal calf sera (FCS).
In order to monitor the effects of oligonucleotides on cell surface expression of B7-1, treated COS-7 cells were harvested by brief trypsinization 24-48 hours after oligonucleotide treatment. The cells were washed with PBS, then resuspended in 100 μL of staining buffer (PBS, 0.2% BSA, 0.1% azide) with 5 μL conjugated anti-B7-1-antibody (i.e., anti-hCD80-FITC, Ancell, Bayport, Minn.; FITC: fluorescein isothiocyanate). The cells were stained for 30 minutes at 4° C., washed with PBS, resuspended in 300 μL containing 0.5% paraformaldehyde. Cells were harvested and the fluorescence profiles were determined using a flow cytometer.
In an initial screen, the ability of hB7-2 oligonucleotides to inhibit B7-2 expression was evaluated by measuring the cell surface expression of B7-2 in transfected COS-7 cells by flow cytometry. The methods used were similar to those given in Example 2, with the exceptions that (1) COS-7 cells were transfected with the plasmids pbcB7-2 or BBG-58, a human ICAM-1 (CD54) expression vector (R&D Systems, Minneapolis, Minn.) introduced into cells by standard calcium phosphate transfection, (2) the oligonucleotides used were those described in Table 2, and (3) a conjugated anti-B7-2 antibody (i.e., anti-hCD86-FITC or anti-CD86-PE, PharMingen, San Diego, Calif.; PE: phycoerythrin) was used during flow cytometry.
B7 antisense oligonucleotides were tested for their effect on cell surface expression of both B7-1 and B7-2. Cell surface expression was measured as described in Example 1. Experiments were done for both human B7 and mouse B7.
The oligonucleotides were screened as described in Example 2 except that the concentration of oligonucleotide was varied as shown in Table 19.
A general note: In flow cytometry, cells or beads pass a laser one at a time.
On to “ISIS 10715: scrambled control of # 9133; SEQ ID NO: 76 (antisense dG*dA*dT*dT*dT*dA*dA*dC*dA*dT*dT*dT*dG*dG*dC*dG*dC*dC*dC*dA) [reference compound]”, for which the “inhibitory activity on B7-2 cell surface expression” value was “no inhibitory activity”. On to “ISIS 10716: scrambled # 9136; SEQ ID NO: 77 (antisense dA*dA*dA*dG*dT*dT*dA*dC*dA*dA*dC*dA*dT*dT*dA*dT*dA*dT*dC*dT) [reference compound]”, for which the “inhibitory activity on B7-2 cell surface expression” value was “no inhibitory activity”.

Still in this data set, the particulars now being: 200 nM; protein expression assay; ISIS 10996 and 2′-O-methyl derivatives.
For “5′-GCG-AGC-TCC-CCG-TAC (antisense GCGAGCTCCCCGTAC; listed as DNA, chemistry not given here) [ISIS 10996, 15-mer derived from ISIS 10373, 0015-0029; 5′-UTR]”, the “B7-2 expression relative to untreated cells” value is “about 50%”.

As to “ISIS 11539: fully 2′MO # 10996; SEQ ID NO: 90 (antisense GCGAGCTCCCCGTAC; all 2'-O-methyl, all phosphorothioate, T or U not given here)”, the “B7-2 expression relative to untreated cells” value is listed as “not active at all”.

The same data set, now with this note: ISIS 10373 deletion derivatives; FIG. 4.
In the case of “5′-GCG-AGC-TCC-CCG-TAC (antisense GCGAGCTCCCCGTAC; listed as DNA, chemistry not given here) [ISIS 10996, 15-mer derived from ISIS 10373, 0015-0029; 5′-UTR]”, the “activity in the B7-2 protein expression assay” value was “as (or more) active”. For “ISIS 10991: # 10373 deletion derivative, 10-mer, 0015-0024; SEQ ID NO: 85 (antisense dC*dT*dC*dC*dC*dC*dG*dT*dA*dC)”, the “activity in the B7-2 protein expression assay” value is given as “little or no activity”. Same read-out and setting: next, “ISIS 10992: # 10373 deletion derivative, 11-mer, 0015-0025; SEQ ID NO: 86 (antisense dG*dC*dT*dC*dC*dC*dC*dG*dT*dA*dC)”: “little or no activity”. “ISIS 10993: # 10373 deletion derivative, 12-mer, 0015-0026; SEQ ID NO: 87 (antisense dA*dG*dC*dT*dC*dC*dC*dC*dG*dT*dA*dC)”: the “activity in the B7-2 protein expression assay” value is “little or no activity”. “ISIS 10994: # 10373 deletion derivative, 13-mer, 0015-0027; SEQ ID NO: 88 (antisense dG*dA*dG*dC*dT*dC*dC*dC*dC*dG*dT*dA*dC)”: the “activity in the B7-2 protein expression assay” value is on record as “little or no activity”. Same read-out and setting: to “ISIS 10995: # 10373 deletion derivative, 14-mer, 0015-0028; SEQ ID NO: 89 (antisense dC*dG*dA*dG*dC*dT*dC*dC*dC*dC*dG*dT*dA*dC)” belongs “little or no activity”.

For another data set, the system named is human B7.2 mRNA. The data set can be described thus: Human B7.2 mRNA levels in THP-1 cells by quantitative real-time PCR (Example 27). It counts as cell-based. More on the design: concentration or dose not given beside the values.
Settings: not given
From the text:
In accordance with the present invention, an additional series of antisense compounds were designed to target different regions of the human B7.2 RNA, using published sequences (GenBank accession number U04343.1, incorporated herein as SEQ ID NO: 295, GenBank accession number BC040261.1, incorporated herein as SEQ ID NO: 296 and GenBank accession number NT—005543.12, a portion of which is incorporated herein as SEQ ID NO: 297). “Target site” indicates the first (5′-most) nucleotide number on the particular target sequence to which the compound binds. All compounds in Table 25 are chimeric oligonucleotides (“gapmers”) 20 nucleotides in length, composed of a central “gap” region consisting of ten 2′-deoxynucleotides, which is flanked on both sides (5′ and 3′ directions) by five-nucleotide “wings”. The wings are composed of 2′-methoxyethyl (2′-MOE)nucleotides. The internucleoside (backbone) linkages are phosphorothioate (P═S) throughout the oligonucleotide. All cytidine residues are 5-methylcytidines. The compounds were analyzed for their effect on human B7.2 mRNA levels in THP-1 cells by quantitative real-time PCR as described in other examples herein. Data are averages from three experiments. If present, “N.D.” indicates “no data”.
Consider “323678 (antisense eA*eG*eT*eA*e[5mC]*dA*dG*d[5mC]*dT*dG*dT*dA*dA*dT*d[5mC]*e[5mC]*eA*eA*eG*eG) [compound 323678]”, for which the “% INHIB (inhibition of human B7.2 mRNA levels)” value (“% INHIB” below) came to 23%. The same measure, in the same setting: to “323679 (antisense eT*eT*eG*eG*eA*dA*dG*dT*dA*d[5mC]*dA*dG*d[5mC]*dT*dG*eT*eA*eA*eT*e[5mC]) [compound 323679]” belongs 60%; to “323680 (antisense eA*eT*eA*eA*eT*dA*dA*d[5mC]*dT*dG*dT*dT*dG*dG*dA*eA*eG*eT*eA*e[5mC]) [compound 323680]”, 51%. For the substance “323681 (antisense e[5mC]*eA*eT*e[5mC]*eA*d[5mC]*dA*d[5mC]*dA*dT*dA*dT*dA*dA*dT*eA*eA*e[5mC]*eT*eG) [compound 323681]”, the “% INHIB” value turned out to be 8%.

Take “323682 (antisense eT*e[5mC]*e[5mC]*eA*eT*dT*dT*d[5mC]*d[5mC]*dA*dT*dA*dG*dA*dA*eT*eT*eA*eG*eA) [compound 323682]”: the “% INHIB” value came out at 35%. For “323683 (antisense eT*e[5mC]*eT*eT*e[5mC]*dT*dT*d[5mC]*d[5mC]*dA*dT*dT*dT*d[5mC]*d[5mC]*eA*eT*eA*eG*eA) [compound 323683]”, the “% INHIB” value was 16%.

As for “323684 (antisense eA*eT*eT*eT*eA*dT*dA*dA*dG*dA*dG*dT*dT*dG*d[5mC]*eG*eA*eG*eG*e[5mC]) [compound 323684]”, the “% INHIB” value stood at 32%.

On to “323685 (antisense eT*eT*eG*eG*eT*dT*d[5mC]*d[5mC]*dA*d[5mC]*dA*dT*dT*dT*dA*eT*eA*eA*eG*eA) [compound 323685]”, for which the “% INHIB” value is 18%. The same measure, in the same setting: to “323686 (antisense e[5mC]*eT*e[5mC]*eT*e[5mC]*d[5mC]*dA*dT*dT*dG*dT*dG*dT*dT*dG*eG*eT*eT*e[5mC]*e[5mC]) [compound 323686]” belongs 53%. Same read-out and setting: to “323687 (antisense e[5mC]*eT*eT*e[5mC]*e[5mC]*d[5mC]*dT*d[5mC]*dT*d[5mC]*d[5mC]*dA*dT*dT*dG*eT*eG*eT*eT*eG) [compound 323687]” belongs 19%. For “323688 (antisense eT*eG*eG*eT*e[5mC]*dT*dG*dT*dT*d[5mC]*dA*d[5mC]*dT*d[5mC]*dT*e[5mC]*eT*eT*e[5mC]*e[5mC]) [compound 323688]”, the “% INHIB” value is 58%.

Consider “323689 (antisense eT*eT*e[5mC]*eA*eT*d[5mC]*dA*dG*dA*dT*d[5mC]*dT*dT*dT*d[5mC]*eA*eG*eG*eT*eA) [compound 323689]”, for which the “% INHIB” value is recorded as 43%.

Turning to “323690 (antisense eA*eT*e[5mC]*eA*e[5mC]*dT*dT*dT*dT*dG*dT*d[5mC]*dG*d[5mC]*dA*eT*eG*eA*eA*eG) [compound 323690]”, the “% INHIB” value was found to be 82%. Still for that read-out and setting: next, “323691 (antisense eG*e[5mC]*eT*eT*eT*dA*d[5mC]*dT*d[5mC]*dT*dT*dT*dA*dA*dT*eT*eA*eA*eA*eA) [compound 323691]”: 40%; “323692 (antisense eG*eT*eA*eT*eG*dG*dG*d[5mC]*dT*dT*dT*dA*d[5mC]*dT*d[5mC]*eT*eT*eT*eA*eA) [compound 323692]”: 57%. The same measure, in the same setting: to “323693 (antisense eA*eT*eA*e[5mC]*eT*dT*dG*dT*dA*dT*dG*dG*dG*d[5mC]*dT*eT*eT*eA*e[5mC]*eT) [compound 323693]” belongs 62%; to “323694 (antisense eA*eA*eT*eG*eA*dA*dT*dA*d[5mC]*dT*dT*dG*dT*dA*dT*eG*eG*eG*e[5mC]*eT) [compound 323694]”, 71%.
